Legend:
[1] = molecular target: T1, human FAAH (Fatty Acid Amide Hydrolase) (Homo sapiens, UniProt O00519); test: FAAH enzyme assay on CHO cell lysate expressing human FAAH (human LY), AAMCA fluorescent substrate; format: biochemical; conditions: human FAAH_CHO cell lysate
T1 construct: The full length FAAH was subcloned into the mammalian expression vector, pcDEF.neo, using XbaI and EcoRI restriction sites; expressed in transfected cells
T1 sequence (O00519 1-579): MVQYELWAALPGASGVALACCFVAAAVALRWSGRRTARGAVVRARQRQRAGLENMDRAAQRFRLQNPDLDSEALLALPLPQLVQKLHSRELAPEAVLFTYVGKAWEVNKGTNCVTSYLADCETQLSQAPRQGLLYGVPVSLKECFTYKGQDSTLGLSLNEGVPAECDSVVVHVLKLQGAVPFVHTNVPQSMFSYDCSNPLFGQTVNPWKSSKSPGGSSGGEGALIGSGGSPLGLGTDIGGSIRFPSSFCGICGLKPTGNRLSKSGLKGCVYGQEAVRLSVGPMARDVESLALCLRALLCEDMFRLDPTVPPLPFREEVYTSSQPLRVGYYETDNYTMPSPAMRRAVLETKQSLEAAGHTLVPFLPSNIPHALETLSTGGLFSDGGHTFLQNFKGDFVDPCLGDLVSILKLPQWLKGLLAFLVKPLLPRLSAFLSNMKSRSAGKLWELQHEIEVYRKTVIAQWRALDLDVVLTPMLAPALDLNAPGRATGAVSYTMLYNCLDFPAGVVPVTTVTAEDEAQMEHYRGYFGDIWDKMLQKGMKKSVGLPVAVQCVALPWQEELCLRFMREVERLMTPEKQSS
Text: (§1) To assist in assay development stable cell lines for human, murine and rat full length FAAH were developed. Human FAAH cDNA (Accession No: NM_001441.1) was purchased from Origene (Rockville, Md.). The full length FAAH was subcloned into the mammalian expression vector, pcDEF.neo, using XbaI and EcoRI restriction sites and used for stable cell line generation.
CHO cells expressing FAAH were used to prepare either crude cell lysate or microsome fractions. To harvest cells, tissue culture media was decanted, the monolayer washed three times with Ca^++Mg^++ free PBS and cells recovered after […] in enzyme free dissociation media (Millipore Corp, Billerica, Mass.). Cells were collected by centrifuging at 2000 rpm for 15 min. and the cell pellet re-suspended with 50 mM HEPES (pH 7.4) containing 1 mM EDTA and the protease inhibitors aprotinin (1 mg/ml) and leupeptin (100 μM). The suspension was sonicated at 4° C. and the cell lysate recovered after centrifuging at 12,000×g (14,600 rpm, SS34 rotor) for 20 min at 4° C. to form a crude pellet of cell debris, nuclei, peroxisomes, lysosomes, and mitochondria; the supernatant or cell lysate was used for FAAH enzyme assay. In some cases, microsomes fractions enriched in FAAH were prepared by centrifuging the cell lysate further at 27,000 rpm (100,000×g) in SW28 rotor for 50 minutes at 4° C. The pellet containing FAAH-enriched microsomes was re-suspend in 50 mM HEPES, (pH 7.4) 1 mM EDTA, and any remaining DNA sheared by passage of material through a 23 gauge needle and aliquots of enzyme were store at −80° C. prior to use.
(§2) (American Radiolabeled Chemicals; 1 mCi/ml) with FAAH (Life Sciences (1995), 56, 1999-2005 and Journal of Pharmacology and Experimented Therapeutics (1997), 283, 729-734), Analytical. Biochemistry (2003), 318, 270-5. In addition, routine assays were performed monitoring hydrolysis of arachidonyl-7-amino-4-methylcoumarin amide (AAMCA) by following increase in fluorescence upon release of 7-amino 4-methyl coumarin (λEX=355 nm, μEM=460 nm). Analytical. Biochemistry (2005). 343, 143-51
(§3) Assays are performed on either cell lysate or microsome fractions prepared as described or in whole cell format employing either the fluorescent substrate AAMCA (Cayman chemical, Ann Arbor, Mich.,) or ^3H-anandamide ([ETHANOLAMINE-1-3H] American Radiolabeled Chemicals; 1 mCi/ml). The cell lysate or microsome assay is performed in black PerkinElmer OptiPlates-384F by adding FAAH_CHO (whole cell (human whole cell or human WC), cell lysate (human cell lysate or human LY) or microsome) in assay buffer (50 mM Phosphate, pH 8.0, 1 mM EDTA, 200 mM KCl, 0.2% glycerol, 0.1% fatty acid free BSA) to each well, followed by either DMSO or compound and allowed to incubate at 22-25° C. for fifteen minutes. AAMCA substrate was used to achieve a final concentration of 1 μM and reaction allowed to proceed at room temperature for 1-3 hours. Fluorescent release as a measure of FAAH activity was monitored by reading the plate in a Envision plate Reader (Ex: 360/40 nM; Em: 460/40 nM). Whole cell assay is conducted with cells harvested after rinsing tissue culture flasks three times with Ca^++Mg^++ free PBS, incubating for […] in Enzyme free dissociation media and centrifuging for 5 minutes at 1,000 rpm in table top centrifuge. Cells are resuspended in assay buffer at desired cell number in (4×10^4 cells/assay in 96-well format; 1×10^4 cells/assay in 384-well format) and assayed as described.

[2] = molecular target: T1, human FAAH (Fatty Acid Amide Hydrolase); test: FAAH whole cell assay on CHO cells expressing human FAAH (human WC), AAMCA fluorescent substrate; format: cell-based; conditions: human FAAH_CHO whole cell
Text: as §1
Murine (accession number NM_010173) and Rat FAAH (accession number NM_024132) was amplified by reverse transcriptase polymerase chain reaction (RT-PCR) from brain cDNA (BD Biosciences, San Jose, Calif.) using primers 1 and 2 or primers 1 and 3 respectively (see Table). The resulting PCR product was ligated into pCR4 TOPO and DNA sequence confirmed. The full length murine FAAH was subcloned into the mammalian expression vector, pcDEFneo using either EcoRI (murine) or KpnI and EcoRI (rat) restriction sites. Chinese hamster ovary cells (CHO) were transfected following manufacturers protocol (AMAXA). Forty eight hours post transfection, cells were trypsinized and transferred to 96 well plates in Iscove's DMEM media supplemented with 2 mM Glutamine, 10% fetal calf serum, 1 mg/ml geneticin and HT Supplement (0.1 mM sodium hypoxanthine, 0.016 mM thymidine) in order to isolate single clones. Following selection in geneticin, individual clones were selected and FAAH activity was assessed using a whole cell fluorescent anandamide assay, modified from Ramarao et al (2005). Following removal of tissue culture media cells were dislodged following addition of Cellstripper (Mediatech, Inc. Manassas, Va.) and transferred to 96 well black clear bottom assay plate, centrifuged at 1,000 rpm for 3 mins and media removed and replaced with assay buffer (50 mM Tris pH8.0, 1 mM EDTA, 0.1% fatty acid free BSA). The reaction was initiated by addition of fluorescent substrate, AMC Arachidonoyl Amide (Cayman Chemical, Ann Arbor, Mich.) to 1 μM and reaction allowed to proceed for 2 hours at room temperature. Release of fluorescence was monitored in a CytoFluor Multiplate Reader. Cells expressing the highest amount of FAAH activity were selected for study with FAAH inhibitors.
as §2
as §3, with “Cells are resuspended in assay buffer at desired cell number in (4×10^4 cells/assay in 96-well format; 1×10^4 cells/assay in 384-well format) and assayed as described.” left out

SMILES | IC50 [1] [nM] | IC50 [2] [nM]
Clc1ccc(Sc2c(-c3ccc4c(c3)OCCO4)[nH]c3ncccc23)nc1 [Example B13] | 2.89 | 13
O=C(NC1CCCCC1)c1[nH]c2ncccc2c1Sc1ccc(Cl)cc1 [Example C17] | 30.4 | 101
COc1ccc(NC(=O)c2[nH]c3ncccc3c2Sc2ccc(Cl)cc2)cn1 [Example C8] | 42.9 | 272
CC(C)(O)c1ccc(-c2[nH]c3ncccc3c2Sc2ccc(Cl)cn2)cc1 [Example A13] | 17.8 | 73.2
COc1cccc(-c2[nH]c3ncccc3c2Sc2ccc(Cl)cc2)c1 [Example B7] | 2.23 | 18.8
O[C@H]1CC[C@H](c2[nH]c3ncccc3c2Sc2ccc(Cl)cc2)CC1 [Example D5, trans-4-{3-[(4-chlorophenyl)sulfanyl]-1H-pyrrolo[2,3-b]pyridin-2-yl}cyclohexanol] | 3.83 | 9.16
COc1ccc(-c2[nH]c3ncccc3c2Sc2ccc(Cl)cc2)cc1 [Example B8] | 2.34 | 10.3
COc1ncc(-c2[nH]c3ncccc3c2Sc2ccc(Cl)cc2)c(OC)n1 [Example B14] | 9.47 | 47.4
O=S(=O)(c1ccc(-c2[nH]c3ncccc3c2Sc2ccc(Cl)cn2)cc1)N1CCOCC1 [Example A21] | 230 | 370
Cn1ccc2cc(-c3[nH]c4ncccc4c3Sc3ccc(Cl)cc3)ccc21 [Example B11] | 3.29 | 10.2
CSc1ccc(-c2[nH]c3ncccc3c2Sc2ccc(Cl)cc2)cc1 [Example A10] | 0.872 | 7.67
N#Cc1cscc1-c1[nH]c2ncccc2c1Sc1ccc(Cl)cc1 [Example B32] | 94.8 | 438
CC(C)Oc1ccc(-c2[nH]c3ncccc3c2Sc2ccc(Cl)cc2)cc1 [Example A17] | 11.6 | 154
NC1CC=C(c2[nH]c3ncccc3c2Sc2ccc(Cl)cc2)CC1 (stereo not shown) [Example B46] | 114 | 1410
NCc1ccc(-c2[nH]c3ncccc3c2Sc2ccc(Cl)cc2)cc1 [Example A30] | 56.3 | 833
O=C(Nc1ccc2c(c1)OCO2)c1[nH]c2ncccc2c1Sc1ccc(Cl)cc1 [Example C15] | 5.9 | 9.92
Clc1ccc(Sc2c(-c3ccnc4[nH]ccc34)[nH]c3ncccc23)cc1 [Example B27] | 3.18 | 30
Clc1ccc(Sc2c(-c3ccc4c(c3)OCO4)[nH]c3ncccc23)nc1 [Example B5, 2-(1,3-benzodioxol-5-yl)-3-[(5-chloropyridin-2-yl)sulfanyl]-1H-pyrrolo[2,3-b]pyridine] | 2.58 | 13.7
C[S+]([O-])c1ccc(-c2[nH]c3ncccc3c2Sc2ccc(Cl)cc2)cn1 (stereo not shown) [Example A36, 3-[(4-chlorophenyl)sulfanyl]-2-[6-(methylsulfinyl)pyridin-3-yl]-1H-pyrrolo[2,3-b]pyridine] | 3.35 | 28.9
OC(c1ccc(-c2[nH]c3ncccc3c2Sc2ccc(Cl)cc2)cc1)C(F)(F)F (stereo not shown) [Example A12] | 5.29 | 27

Next, values leading:

IC50 [1] [nM] | IC50 [2] [nM] | SMILES
132 | 400 | Clc1ccc(Sc2c(CNCc3ccccc3)[nH]c3ncccc23)cc1 [Example J6, N-benzyl-1-{3-[(4-chlorophenyl)sulfanyl]-1H-pyrrolo[2,3-b]pyridin-2-yl}methanamine]
52.9 | 151 | COc1ccc(Cc2[nH]c3ncccc3c2Sc2ccc(Cl)cc2)cc1 [Example F2, 3-[(4-chlorophenyl)sulfanyl]-2-(4-methoxybenzyl)-1H-pyrrolo[2,3-b]pyridine]
148 | 252 | Cn1cccc2c(Sc3ccc(Cl)cn3)c([C@H]3CC[C@@H](O)CC3)nc1-2 [Example E23]
497 | 3220 | Clc1ccc(Sc2c3cccn(CCn4cccc4)c-3nc2-c2ccc3c(c2)OCO3)cc1 [Example E22]
171 | 1340 | Cn1cccc2c(Sc3ccc(Cl)cc3)c(C(=O)Nc3ccc4c(c3)OCCO4)nc1-2 [Example E18]
2600 | 3330 | OC(c1ccc2c(c1)OCO2)c1[nH]c2ncccc2c1Sc1ccc(Cl)cc1 (stereo not shown) [Example J9]
9.92 | 18.8 | Cn1cccc2c(Sc3ccc(Cl)cc3)c([C@H]3CC[C@H](O)CC3)nc1-2 [Example E7]
59 | 202 | CC1(C)CC(NCc2[nH]c3ncccc3c2Sc2ccc(Cl)cc2)CC(C)(C)O1 [Example J12]
31.7 | 115 | OCCn1c(-c2ccc3c(c2)OCO3)c(Sc2ccc(Cl)cc2)c2cccnc21 [Example E35]
